This note sets out measurements from patent US11932640B1, “Pyrrolo[3,4-b]quinoline compounds as antibacterial agents” (KING FAISAL UNIVERSITY, priority 2023, dated 2024).

Converted amounts (≈) assume the structure as drawn. Where two headings read alike, the source gives them in different places.

The test system of test [1] is Escherichia coli MTCC 443. In words: Antibacterial MIC, CLSI M07-A10 dilution. The format is cell-based. The conditions noted are these: MTCC443.
Test [2] concerns the target T1, DNA gyrase from E. coli (Escherichia coli, UniProt P0AES4+P0AES6).
T1 construct: purchased Inspiralis
In words: E. coli DNA gyrase inhibition (Inspiralis assay). The format is biochemical. How it is done:
Inhibitory potencies were investigated utilizing the Inspiralis assay on streptavidin-coated 96-well microtiter plates. First, the plates were rehydrated with buffer (20 mM Tris-HCl with pH 7.6, 0.01% w/v BSA, 0.05% v/v Tween 20, 137 mM NaCl) and the biotinylated oligonucleotide was then immobilized. After washing off the unbound oligonucleotide, the enzyme test was performed. […] Reaction solutions were incubated at 37° C. for 30 min. After that, the TF buffer (50 mM NaOAc with pH 5.0, 50 mM NaCl and 50 mM MgCl2) was added to terminate the enzymatic reaction. […] The fluorescence was measured with a microplate reader (BioTek Synergy H4, excitation: 485 nm, emission: 535 nm). Initial screening was done at 100 or 10 μM concentration of inhibitors. […] GraphPad Prism software was used to calculate the IC50 values. The result is given as the average value of three independent measurements.

For test [3], the system named is Enterococcus faecium ATCC 51559 (VRE resistant). The experiment in a line: Antibacterial MIC, CLSI M07-A10 dilution. The format is cell-based.
The test system of test [4] is Staphylococcus aureus ATCC 29213. The experiment in a line: Antibacterial MIC, CLSI M07-A10 dilution. Conditions: ATCC29213. The format is cell-based.
The test system of test [5] is Mycobacterium tuberculosis H37Rv strain. In words: Anti-tubercular alamar blue microplate MIC. The format is cell-based. Conditions: 168 h, M. tuberculosis H37Rv, 7 days at 37° C., read-out: anti-mycobacterial activity (MIC).
In test [6] the test system is Staphylococcus epidermidis. In words: Antibacterial MIC, CLSI M07-A10 dilution. The format is cell-based.
Test [7] concerns Pseudomonas aeruginosa MTCC 741. The experiment in a line: Antibacterial MIC, CLSI M07-A10 dilution. The format is cell-based. The conditions noted are these: MTCC741.
In test [8] the test system is Enterococcus faecium ATCC 35667. In words: Antibacterial MIC, CLSI M07-A10 dilution. The format is cell-based. Conditions: ATCC35667.
Test [9] deals with Staphylococcus aureus ATCC BAA-1556 (MERSA resistant). The experiment in a line: Antibacterial MIC, CLSI M07-A10 dilution. Conditions: ATCCBAA1556. The format is cell-based.
For test [10], the system named is Klebsiella pneumonia MTCC 618. The experiment in a line: Antibacterial MIC, CLSI M07-A10 dilution. The format is cell-based. Conditions: Klebsiella pneumoniae, MTCC618.
Test [11] concerns Bacillus subtilis MTCC 441. In words: Antibacterial MIC, CLSI M07-A10 dilution. The format is cell-based. The conditions noted are these: MTCC441.

T1 sequence (P0AES4 whole entry, one chain of several): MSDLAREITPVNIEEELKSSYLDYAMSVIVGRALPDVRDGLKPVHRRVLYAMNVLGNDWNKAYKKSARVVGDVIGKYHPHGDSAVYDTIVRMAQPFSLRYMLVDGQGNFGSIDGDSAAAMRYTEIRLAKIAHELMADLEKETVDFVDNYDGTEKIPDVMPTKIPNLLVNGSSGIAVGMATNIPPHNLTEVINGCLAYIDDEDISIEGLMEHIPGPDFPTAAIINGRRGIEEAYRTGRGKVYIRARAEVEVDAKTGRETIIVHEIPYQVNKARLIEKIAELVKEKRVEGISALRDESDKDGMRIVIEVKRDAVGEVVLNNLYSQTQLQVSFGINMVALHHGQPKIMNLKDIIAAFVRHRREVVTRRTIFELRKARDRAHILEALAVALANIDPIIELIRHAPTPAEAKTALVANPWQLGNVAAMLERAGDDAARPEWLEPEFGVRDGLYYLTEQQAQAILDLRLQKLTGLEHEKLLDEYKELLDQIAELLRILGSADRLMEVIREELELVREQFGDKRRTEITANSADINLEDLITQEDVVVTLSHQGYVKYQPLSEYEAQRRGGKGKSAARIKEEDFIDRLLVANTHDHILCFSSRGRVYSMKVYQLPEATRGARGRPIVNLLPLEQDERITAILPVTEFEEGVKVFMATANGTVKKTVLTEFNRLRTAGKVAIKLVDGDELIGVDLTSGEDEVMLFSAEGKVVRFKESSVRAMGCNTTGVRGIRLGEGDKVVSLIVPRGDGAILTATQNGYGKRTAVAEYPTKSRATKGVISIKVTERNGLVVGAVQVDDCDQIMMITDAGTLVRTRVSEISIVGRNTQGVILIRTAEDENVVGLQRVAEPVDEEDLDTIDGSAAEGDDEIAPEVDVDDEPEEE

In the case of `CCCCCN(C)Cc1cc(C(=O)O)ccc1N1C(=O)c2nc3c(NC)cc(F)cc3c(O)c2C1=O` [Compound 12, 4-(7-fluoro-9-hydroxy-5-(methylamino)-1,3-dioxo-1,3-dihydro-2H-pyrrolo[3,4-b]quinolin-2-yl)-3-((methyl(pentyl)amino)methyl)benzoic acid], the MIC in [1] came out at 4 µg/mL (≈ 8.09 µM); in test [3] it was 0.75 µg/mL (≈ 1.52 µM); in [4] it was 1 µg/mL (≈ 2.02 µM); in [5] it was 4 µg/mL (≈ 8.09 µM); in test [6] it was 0.75 µg/mL (≈ 1.52 µM); in test [7], 1 µg/mL (≈ 2.02 µM). Besides, the MIC came out at 0.5 µg/mL (≈ 1.01 µM) in test [8]; 2 µg/mL (≈ 4.04 µM) in test [9]; 1 µg/mL (≈ 2.02 µM) in test [10] (Klebsiella pneumonia MTCC 618, read-out: MIC); 0.5 µg/mL (≈ 1.01 µM) in [11]. The IC50 in test [2] came to 16 nM.
Turning to `CN[C@H](CC(C)C)C(=O)N[C@H]1C(=O)N[C@@H](CC(N)=O)C(=O)N[C@H]2C(=O)N[C@H]3C(=O)N[C@H](C(=O)N[C@H](C(=O)O)c4cc(O)cc(O)c4-c4cc3ccc4O)[C@H](O)c3ccc(c(Cl)c3)Oc3cc2cc(c3O[C@@H]2O[C@H](CO)[C@@H](O)[C@H](O)[C@H]2O[C@H]2C[C@](C)(N)[C@H](O)[C@H](C)O2)Oc2ccc(cc2Cl)[C@H]1O` [Vancomycin, reference compound], the MIC in [10] was greater than 128 µg/mL.
